Measured values as given in publication PMC10175918 (Communications Biology, 2023).
Read-outs that look alike come from different tables or passages of the source. One block for each compound: values may come before it.

Key:
Test in all cases: cell-based
Design in all cases: species or system HEK293A; AP-TGFα shedding assay, transfected GPCR plus chimeric Gα mixture, AP release as % of TPA response
Settings in all cases: HEK293-A
[1] = target: T1, G protein-coupled receptor 183 (Epstein-Barr Virus Induced Gene 2) (Homo sapiens, UniProt P32249)
T1 construct: gene GPR183
T1 sequence (P32249 whole entry): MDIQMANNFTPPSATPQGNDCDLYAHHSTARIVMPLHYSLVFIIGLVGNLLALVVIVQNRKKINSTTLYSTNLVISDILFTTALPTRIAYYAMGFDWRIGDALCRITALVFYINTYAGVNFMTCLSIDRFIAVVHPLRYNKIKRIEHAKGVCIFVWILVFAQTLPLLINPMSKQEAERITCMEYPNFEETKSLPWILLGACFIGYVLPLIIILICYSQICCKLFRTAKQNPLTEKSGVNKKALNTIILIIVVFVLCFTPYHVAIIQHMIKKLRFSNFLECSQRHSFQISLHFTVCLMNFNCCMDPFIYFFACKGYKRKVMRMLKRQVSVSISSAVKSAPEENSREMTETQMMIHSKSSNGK

[2] = target: T2, G protein-coupled receptor 18 (Homo sapiens, UniProt Q14330)
T2 construct: gene GPR18
T2 sequence (Q14330 1-331): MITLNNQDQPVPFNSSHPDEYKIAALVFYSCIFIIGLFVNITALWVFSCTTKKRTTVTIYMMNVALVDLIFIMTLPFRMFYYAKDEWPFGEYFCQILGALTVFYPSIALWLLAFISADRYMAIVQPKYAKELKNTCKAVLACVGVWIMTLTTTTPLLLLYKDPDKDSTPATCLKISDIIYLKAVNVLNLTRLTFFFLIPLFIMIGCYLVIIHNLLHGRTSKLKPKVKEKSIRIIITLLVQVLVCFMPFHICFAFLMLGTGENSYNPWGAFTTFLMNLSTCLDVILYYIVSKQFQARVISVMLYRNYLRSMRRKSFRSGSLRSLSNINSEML

[3] = target: T3, relaxin/insulin-like family peptide receptor 1 (Homo sapiens, UniProt Q9HBX9)
T3 construct: gene RXFP1
T3 sequence (Q9HBX9 1-757): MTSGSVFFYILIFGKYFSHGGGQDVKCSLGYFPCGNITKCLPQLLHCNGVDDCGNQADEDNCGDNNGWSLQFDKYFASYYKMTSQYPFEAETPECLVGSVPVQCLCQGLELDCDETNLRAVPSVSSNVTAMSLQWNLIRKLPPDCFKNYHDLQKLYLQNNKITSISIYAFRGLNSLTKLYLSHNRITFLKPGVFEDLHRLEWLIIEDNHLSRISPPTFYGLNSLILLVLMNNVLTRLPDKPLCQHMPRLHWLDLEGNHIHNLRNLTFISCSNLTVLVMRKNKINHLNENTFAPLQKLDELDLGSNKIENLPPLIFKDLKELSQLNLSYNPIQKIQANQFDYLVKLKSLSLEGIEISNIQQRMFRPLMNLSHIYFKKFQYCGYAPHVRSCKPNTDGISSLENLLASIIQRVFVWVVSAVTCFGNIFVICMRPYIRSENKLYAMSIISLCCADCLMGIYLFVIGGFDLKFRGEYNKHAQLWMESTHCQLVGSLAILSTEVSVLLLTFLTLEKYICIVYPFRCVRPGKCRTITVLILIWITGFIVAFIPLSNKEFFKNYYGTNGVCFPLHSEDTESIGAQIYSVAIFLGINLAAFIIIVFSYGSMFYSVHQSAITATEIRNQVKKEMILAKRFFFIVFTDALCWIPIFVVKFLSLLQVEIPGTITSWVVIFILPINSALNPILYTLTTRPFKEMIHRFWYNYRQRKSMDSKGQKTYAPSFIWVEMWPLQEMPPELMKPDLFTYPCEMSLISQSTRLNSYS

[4] = target: T4, G protein-coupled receptor 17 short (Homo sapiens, UniProt Q13304)
T4 construct: gene GPR17; short isoform
T4 sequence (Q13304 whole entry, canonical isoform): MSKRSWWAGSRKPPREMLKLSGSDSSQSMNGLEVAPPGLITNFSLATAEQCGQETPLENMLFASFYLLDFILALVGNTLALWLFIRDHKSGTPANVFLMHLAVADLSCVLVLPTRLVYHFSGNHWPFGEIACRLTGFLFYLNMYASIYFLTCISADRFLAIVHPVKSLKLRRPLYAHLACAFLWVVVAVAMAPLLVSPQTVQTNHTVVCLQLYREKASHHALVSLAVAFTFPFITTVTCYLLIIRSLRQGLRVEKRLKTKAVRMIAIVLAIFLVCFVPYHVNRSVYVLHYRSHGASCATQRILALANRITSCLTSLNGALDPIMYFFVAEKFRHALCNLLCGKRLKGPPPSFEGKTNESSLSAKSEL

[5] = target: T5, purinergic receptor P2Y, G-protein coupled, 13 short (Homo sapiens, UniProt Q9BPV8)
T5 construct: gene P2RY13; short
T5 sequence (Q9BPV8 1-354): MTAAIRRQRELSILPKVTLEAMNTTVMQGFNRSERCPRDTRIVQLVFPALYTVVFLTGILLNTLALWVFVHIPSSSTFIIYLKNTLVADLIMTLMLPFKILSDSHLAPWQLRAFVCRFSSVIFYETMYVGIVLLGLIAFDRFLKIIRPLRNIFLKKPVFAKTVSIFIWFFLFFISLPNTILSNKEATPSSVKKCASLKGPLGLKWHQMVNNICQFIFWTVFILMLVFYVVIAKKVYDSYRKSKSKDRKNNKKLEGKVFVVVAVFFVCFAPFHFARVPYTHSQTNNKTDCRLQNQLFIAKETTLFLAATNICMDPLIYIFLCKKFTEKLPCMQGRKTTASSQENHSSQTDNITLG

[6] = target: T6, G protein-coupled receptor 68 long (Homo sapiens, UniProt Q15743)
T6 construct: gene GPR68; long isoform
T6 sequence (Q15743 whole entry, canonical isoform): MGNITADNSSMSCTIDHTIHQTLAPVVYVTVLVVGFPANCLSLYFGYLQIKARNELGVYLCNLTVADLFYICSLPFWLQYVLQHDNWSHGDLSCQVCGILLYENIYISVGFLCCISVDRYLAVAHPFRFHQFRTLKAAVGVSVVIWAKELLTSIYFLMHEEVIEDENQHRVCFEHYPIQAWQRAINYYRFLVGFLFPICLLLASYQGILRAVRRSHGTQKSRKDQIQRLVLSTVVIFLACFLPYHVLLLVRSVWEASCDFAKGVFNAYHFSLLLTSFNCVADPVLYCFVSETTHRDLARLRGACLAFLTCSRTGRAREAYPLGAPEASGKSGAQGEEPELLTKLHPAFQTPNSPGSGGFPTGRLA

[7] = target: T7, hypocretin (orexin) receptor 2 (Homo sapiens, UniProt O43614)
T7 construct: gene HCRTR2
T7 sequence (O43614 1-444): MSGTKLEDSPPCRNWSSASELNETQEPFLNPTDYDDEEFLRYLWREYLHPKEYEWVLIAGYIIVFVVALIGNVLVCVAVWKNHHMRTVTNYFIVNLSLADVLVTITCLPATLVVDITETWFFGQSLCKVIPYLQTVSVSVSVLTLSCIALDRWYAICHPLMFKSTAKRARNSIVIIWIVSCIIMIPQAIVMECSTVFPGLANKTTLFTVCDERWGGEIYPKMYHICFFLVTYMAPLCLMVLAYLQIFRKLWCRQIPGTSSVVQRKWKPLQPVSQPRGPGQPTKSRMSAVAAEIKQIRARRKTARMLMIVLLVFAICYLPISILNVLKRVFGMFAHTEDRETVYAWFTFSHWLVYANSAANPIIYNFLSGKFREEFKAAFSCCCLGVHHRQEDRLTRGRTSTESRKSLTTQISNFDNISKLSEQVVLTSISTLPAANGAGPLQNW

adenosine A2a receptor = target: T8, adenosine A2a receptor (Homo sapiens, UniProt P29274)
T8 construct: gene ADORA2A
T8 sequence (P29274 whole entry): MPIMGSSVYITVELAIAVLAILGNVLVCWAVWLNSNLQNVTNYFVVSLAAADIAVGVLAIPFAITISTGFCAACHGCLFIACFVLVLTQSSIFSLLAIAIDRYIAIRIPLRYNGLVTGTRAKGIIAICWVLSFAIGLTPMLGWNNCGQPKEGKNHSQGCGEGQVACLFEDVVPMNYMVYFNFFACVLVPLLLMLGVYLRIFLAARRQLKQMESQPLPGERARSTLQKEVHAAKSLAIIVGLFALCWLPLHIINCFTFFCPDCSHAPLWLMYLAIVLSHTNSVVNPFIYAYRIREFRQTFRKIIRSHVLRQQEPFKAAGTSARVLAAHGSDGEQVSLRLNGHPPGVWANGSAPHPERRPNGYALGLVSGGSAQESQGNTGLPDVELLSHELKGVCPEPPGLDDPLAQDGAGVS

[8] = read-out: % GPCR activation of 10μM GS441524 compared to TPA
[9] = read-out: % GPCR activation of 100μM Favipiravir compared to TPA
[10] = read-out: % GPCR activation of 10µM Molnupiravir compared to TPA
[11] = read-out: % GPCR activation of 10µM Remdesivir compared to TPA
[12] = read-out: % GPCR activation of 10μM Sofosbuvir compared to TPA

SMILES: CC(C)C(=O)OC[C@H]1O[C@@H](n2ccc(NO)nc2=O)[C@H](O)[C@@H]1O [molnupiravir]
activity at 10 µM [1, 10]: -0.842%
activity at 10 µM [2, 10]: -5.39%
activity at 10 µM [3, 10]: -0.957%
activity at 10 µM [4, 10]: 0.174%
activity at 10 µM [5, 10]: -3.48%
activity at 10 µM [6, 10]: -160%
activity at 10 µM [7, 10]: 0.477%
activity at 10 µM (adenosine A2a receptor; [10]): -1.95%

SMILES: CCC(CC)COC(=O)[C@H](C)N[P@](=O)(OC[C@H]1O[C@@](C#N)(c2ccc3c(N)ncnn23)[C@H](O)[C@@H]1O)Oc1ccccc1 [remdesivir]
activity at 10 µM [1, 11]: 0.482%
activity at 10 µM [2, 11]: 1.12%
activity at 10 µM [3, 11]: -0.564%
activity at 10 µM [4, 11]: 2.96%
activity at 10 µM [5, 11]: 2.55%
activity at 10 µM [6, 11]: -2.93%
activity at 10 µM [7, 11]: 0.000265%
activity at 10 µM (adenosine A2a receptor; [11]): 3.96%

SMILES: CC(C)OC(=O)[C@H](C)N[P@](=O)(OC[C@H]1O[C@@H](n2ccc(=O)[nH]c2=O)[C@](C)(F)[C@@H]1O)Oc1ccccc1 [sofosbuvir]
activity at 10 µM [1, 12]: -0.758%
activity at 10 µM [2, 12]: -3.04%
activity at 10 µM [3, 12]: 0.456%
activity at 10 µM [4, 12]: 1.81%
activity at 10 µM [5, 12]: -2.68%
activity at 10 µM [6, 12]: -162%
activity at 10 µM [7, 12]: -1.97%
activity at 10 µM (adenosine A2a receptor; [12]): -2.15%

Second part, led by results:

activity at 10 µM [2, 8]: 2.08%
activity at 10 µM [3, 8]: -1.09%
activity at 10 µM [4, 8]: 2.36%
activity at 10 µM [5, 8]: 0.947%
activity at 10 µM [6, 8]: 3.27%
activity at 10 µM [7, 8]: 2.17%
activity at 10 µM (adenosine A2a receptor; [8]): 1.63%
SMILES: N#C[C@@]1(c2ccc3c(N)ncnn23)O[C@H](CO)[C@@H](O)[C@H]1O [GS441524]
activity at 10 µM [1, 8]: -1.47%

activity at 100 µM [1, 9]: -1.16%
activity at 100 µM [2, 9]: -1%
activity at 100 µM [3, 9]: 0.274%
activity at 100 µM [4, 9]: -0.501%
activity at 100 µM [5, 9]: 1.7%
activity at 100 µM [6, 9]: 5.02%
activity at 100 µM [7, 9]: 0.725%
activity at 100 µM (adenosine A2a receptor; [9]): 2.34%
SMILES: NC(=O)c1nc(F)cnc1O [favipiravir, 6-fluoro-3-hydroxy-2-pyrazinecarboxamide]
